Read-outs that look alike come from different tables or passages of the source.
What was measured:
[1] = target: TLR1/TLR2 (Homo sapiens, UniProt O60603+Q15399); assay: TNF-α release from PMA-differentiated human THP-1 cells (ELISA); settings: for Emax: THP-1, 4 h, read-out: Efficacy (magnitude) of response versus diprovocim-1 (100%), THP-1;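 for all read-outs here: cells exposed to graded compound concentrations for 4 h, TNF-α quantified in supernatant, LPS as positive and DMSO as negative control, values are duplicate means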
Chain of TLR1/TLR2 (Homo sapiens, UniProt O60603+Q15399) (Q15399 25-786): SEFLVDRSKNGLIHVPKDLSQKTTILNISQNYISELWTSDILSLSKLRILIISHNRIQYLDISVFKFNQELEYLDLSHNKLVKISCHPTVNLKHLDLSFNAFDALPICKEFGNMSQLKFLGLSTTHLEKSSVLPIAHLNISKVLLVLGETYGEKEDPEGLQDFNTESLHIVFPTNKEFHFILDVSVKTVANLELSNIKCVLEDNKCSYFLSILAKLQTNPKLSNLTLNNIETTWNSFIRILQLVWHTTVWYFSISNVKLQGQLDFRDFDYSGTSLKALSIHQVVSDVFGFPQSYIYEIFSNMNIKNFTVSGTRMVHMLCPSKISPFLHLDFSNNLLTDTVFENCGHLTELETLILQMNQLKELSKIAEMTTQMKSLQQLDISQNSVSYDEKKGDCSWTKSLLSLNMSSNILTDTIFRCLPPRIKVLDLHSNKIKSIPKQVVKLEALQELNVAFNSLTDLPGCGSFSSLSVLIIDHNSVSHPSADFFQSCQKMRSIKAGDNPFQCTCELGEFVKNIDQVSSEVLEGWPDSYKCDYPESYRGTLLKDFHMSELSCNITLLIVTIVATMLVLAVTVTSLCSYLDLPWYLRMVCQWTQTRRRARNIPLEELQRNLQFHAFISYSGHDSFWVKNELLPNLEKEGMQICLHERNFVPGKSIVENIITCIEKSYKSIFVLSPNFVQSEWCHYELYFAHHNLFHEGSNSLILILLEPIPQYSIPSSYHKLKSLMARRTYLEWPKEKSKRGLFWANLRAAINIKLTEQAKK
Chain of TLR1/TLR2 (Homo sapiens, UniProt O60603+Q15399) (O60603 21-784): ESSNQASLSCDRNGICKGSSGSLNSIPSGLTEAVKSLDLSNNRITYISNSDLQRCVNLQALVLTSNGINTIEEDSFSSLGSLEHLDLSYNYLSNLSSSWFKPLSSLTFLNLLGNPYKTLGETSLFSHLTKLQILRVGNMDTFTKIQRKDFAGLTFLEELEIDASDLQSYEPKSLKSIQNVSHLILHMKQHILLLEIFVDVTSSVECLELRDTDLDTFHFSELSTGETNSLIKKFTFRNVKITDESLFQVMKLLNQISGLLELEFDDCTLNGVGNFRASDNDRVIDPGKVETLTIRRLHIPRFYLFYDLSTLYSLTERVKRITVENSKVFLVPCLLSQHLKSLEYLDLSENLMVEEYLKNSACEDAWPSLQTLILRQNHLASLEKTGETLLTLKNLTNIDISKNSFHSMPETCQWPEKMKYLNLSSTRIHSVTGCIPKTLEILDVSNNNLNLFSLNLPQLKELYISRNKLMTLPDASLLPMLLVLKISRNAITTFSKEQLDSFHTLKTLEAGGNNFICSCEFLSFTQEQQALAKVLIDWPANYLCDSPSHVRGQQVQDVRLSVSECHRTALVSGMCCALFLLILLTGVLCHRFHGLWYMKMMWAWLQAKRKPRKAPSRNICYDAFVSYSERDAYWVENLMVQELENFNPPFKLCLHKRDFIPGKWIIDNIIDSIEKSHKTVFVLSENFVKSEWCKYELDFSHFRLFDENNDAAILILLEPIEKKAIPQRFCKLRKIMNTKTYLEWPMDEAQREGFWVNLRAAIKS

[2] = target: TLR1/TLR2 (Mus musculus, UniProt Q9EPQ1+Q9QUN7); assay: TNF-α release from thioglycolate-elicited mouse peritoneal macrophages (ELISA); settings: for Emax: 4 h, read-out: Efficacy (magnitude) of response versus diprovocim-1 (100%), mouse macrophages
Chain of TLR1/TLR2 (Mus musculus, UniProt Q9EPQ1+Q9QUN7) (Q9EPQ1 26-795): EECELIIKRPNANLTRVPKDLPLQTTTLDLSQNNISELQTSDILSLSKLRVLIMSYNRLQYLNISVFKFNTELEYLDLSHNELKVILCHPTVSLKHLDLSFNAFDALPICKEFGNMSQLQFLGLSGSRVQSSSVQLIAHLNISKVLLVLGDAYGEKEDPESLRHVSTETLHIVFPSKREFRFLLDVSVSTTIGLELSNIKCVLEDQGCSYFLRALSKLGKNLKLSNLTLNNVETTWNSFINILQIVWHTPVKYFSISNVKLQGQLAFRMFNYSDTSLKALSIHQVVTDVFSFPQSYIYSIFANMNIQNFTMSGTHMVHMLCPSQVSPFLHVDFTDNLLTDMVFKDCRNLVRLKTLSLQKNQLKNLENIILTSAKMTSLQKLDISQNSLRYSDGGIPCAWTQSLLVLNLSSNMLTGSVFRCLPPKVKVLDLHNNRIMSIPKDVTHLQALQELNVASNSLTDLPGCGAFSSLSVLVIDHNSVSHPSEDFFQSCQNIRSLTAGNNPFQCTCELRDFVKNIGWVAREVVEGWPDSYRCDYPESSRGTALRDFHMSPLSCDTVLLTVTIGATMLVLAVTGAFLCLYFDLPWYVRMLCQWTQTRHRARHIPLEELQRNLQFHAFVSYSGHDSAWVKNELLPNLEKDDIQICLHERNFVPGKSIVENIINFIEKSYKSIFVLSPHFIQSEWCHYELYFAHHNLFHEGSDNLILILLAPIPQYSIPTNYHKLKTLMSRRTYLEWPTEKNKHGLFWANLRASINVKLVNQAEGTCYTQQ
Chain of TLR1/TLR2 (Mus musculus, UniProt Q9EPQ1+Q9QUN7) (Q9QUN7 25-784): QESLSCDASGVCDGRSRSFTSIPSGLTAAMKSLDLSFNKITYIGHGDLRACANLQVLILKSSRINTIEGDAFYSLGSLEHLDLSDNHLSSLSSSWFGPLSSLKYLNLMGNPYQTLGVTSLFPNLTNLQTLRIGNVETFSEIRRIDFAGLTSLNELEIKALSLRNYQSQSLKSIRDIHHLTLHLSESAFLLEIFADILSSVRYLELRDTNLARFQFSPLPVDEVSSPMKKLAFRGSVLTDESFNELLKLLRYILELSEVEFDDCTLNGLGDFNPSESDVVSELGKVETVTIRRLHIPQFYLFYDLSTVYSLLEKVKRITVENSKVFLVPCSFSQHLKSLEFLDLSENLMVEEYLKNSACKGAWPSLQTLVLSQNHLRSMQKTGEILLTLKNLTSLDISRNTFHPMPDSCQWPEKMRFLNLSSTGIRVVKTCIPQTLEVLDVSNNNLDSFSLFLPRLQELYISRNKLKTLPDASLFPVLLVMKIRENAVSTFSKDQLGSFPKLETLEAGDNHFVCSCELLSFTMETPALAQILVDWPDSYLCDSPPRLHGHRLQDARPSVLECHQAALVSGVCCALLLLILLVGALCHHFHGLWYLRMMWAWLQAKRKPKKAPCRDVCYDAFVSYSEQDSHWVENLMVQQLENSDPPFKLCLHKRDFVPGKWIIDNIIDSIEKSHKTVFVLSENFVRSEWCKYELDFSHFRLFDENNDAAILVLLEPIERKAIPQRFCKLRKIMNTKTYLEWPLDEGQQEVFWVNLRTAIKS

[3] = read-out: EC50 (nM) (THP-1): EC50 TNF-α release from human THP-1 cells, Table 3
[4] = read-out: EC50 (nM) (mouse): EC50 TNF-α release from mouse macrophages, Table 3
[5] = read-out: EC50 (nM) (THP-1): EC50 TNF-α release from human THP-1 cells, Table 1
[6] = read-out: EC50 (nM) (mouse): EC50 TNF-α release from mouse macrophages, Table 1

Structure (SMILES) | Emax [1] [%] | EC50 [1, 3] [nM] | Emax [2] [%] | EC50 [2, 4] [nM] | other results
O=C(NCCOCCOCCOCCO)[C@@H]1CN(C(=O)c2ccc(C(=O)N3C[C@@H](C(=O)N[C@H]4C[C@@H]4c4ccccc4)[C@H](C(=O)N[C@H]4C[C@@H]4c4ccccc4)C3)cc2)C[C@H]1C(=O)N[C@H]1C[C@@H]1c1ccccc1 [Compound 30, (3S,4S)-1-(4-((3S,4S)-3,4-Bis(((1S,2R)-2-phenyl-cyclopropyl)carbamoyl)pyrrolidine-1-carbonyl)-benzoyl)-N^3-(2-(2-(2-(2-hydroxyethoxy)ethoxy)ethoxy)-ethyl)-N^4-((1S,2R)-2-phenylcyclopropyl)-pyrrolidine-3,4-dicarboxamide] | – | – | – | – | EC50 ([1]; read-out: EC50 (nM) (THP-1): EC50 TNF-α release from human THP-1 cells, Table 2): 2000 nM; EC50 [2]: > 5000 nM
O=C(CNC(=O)OCC(Cl)(Cl)Cl)OCCCCCCCCCCCCNC(=O)[C@@H]1CN(C(=O)c2ccc(C(=O)N3C[C@@H](C(=O)N[C@H]4C[C@@H]4c4ccccc4)[C@H](C(=O)N[C@H]4C[C@@H]4c4ccccc4)C3)cc2)C[C@H]1C(=O)N[C@H]1C[C@@H]1c1ccccc1 [Compound 37, 12-((3S,4S)-1-(4-((3S,4S)-3,4-Bis(((1S,2R)-2-phenyl-cyclopropyl)carbamoyl)pyrrolidine-1-carbonyl)benzoyl)-4-(((1S,2R)-2-phenylcyclopropyl)carbamoyl)pyrrolidine-3-carboxamido)-dodecyl 2-(((2,2,2-trichloroethoxy)-carbonyl)amino)acetate] | 100 | 0.27 | 300 | 3.4 | –
CC(C)(C)OC(=O)CCOCCOCCOCCNC(=O)CCCCCCCCCCCNC(=O)[C@@H]1CN(C(=O)c2ccc(C(=O)N3C[C@@H](C(=O)N[C@H]4C[C@@H]4c4ccccc4)[C@H](C(=O)N[C@H]4C[C@@H]4c4ccccc4)C3)cc2)C[C@H]1C(=O)N[C@H]1C[C@@H]1c1ccccc1 [Compound 56, tert-Butyl 1-((3S,4S)-1-(4-((3S,4S)-3,4-bis(((1S,2R)-2-phenylcyclopropyl)carbamoyl)pyrrolidine-1carbonyl)benzoyl)-4-(((1S,2R)-2-phenylcyclopropyl)-carbamoyl)pyrrolidin-3-yl)-1,14-dioxo-18,21,24-trioxa-2,15-diazaheptacosan-27-oate] | 100 | – | 140 | – | EC50 ([1]; read-out: EC50 (nM) (THP-1): EC50 TNF-α release from human THP-1 cells, Table 4): 2.8 nM; EC50 ([2]; read-out: EC50 (nM) (mouse): EC50 TNF-α release from mouse macrophages, Table 4): 21 nM
CC(C)(C)OC(=O)N[C@@H](Cc1ccccc1)C(=O)OCCCCCCCCCCCCNC(=O)[C@@H]1CN(C(=O)c2ccc(C(=O)N3C[C@@H](C(=O)N[C@H]4C[C@@H]4c4ccccc4)[C@H](C(=O)N[C@H]4C[C@@H]4c4ccccc4)C3)cc2)C[C@H]1C(=O)N[C@H]1C[C@@H]1c1ccccc1 [Compound 63, (S)-12-((3S,4S)-1-(4-((3S,4S)-3,4-Bis(((1S,2R)-2-phenylcyclopropyl)carbamoyl)pyrrolidine-1-carbonyl)-benzoyl)-4-(((1S,2R)-2-phenylcyclopropyl)carbamoyl)-pyrrolidine-3-carboxamido)-dodecyl 2-((tert-butoxy-carbonyl)amino)-3-phenylpropanoate] | 100 | – | 220 | – | EC50 ([1]; read-out: EC50 (nM) (THP-1): EC50 TNF-α release from human THP-1 cells, Table 5): 40 nM; EC50 ([2]; read-out: EC50 (nM) (mouse): EC50 TNF-α release from mouse macrophages, Table 5): 40 nM
O=C(NCCc1ccc(F)cc1)[C@@H]1CN(C(=O)c2ccc(C(=O)N3C[C@@H](C(=O)N[C@H]4C[C@@H]4c4ccccc4)[C@H](C(=O)N[C@H]4C[C@@H]4c4ccccc4)C3)cc2)C[C@H]1C(=O)N[C@H]1C[C@@H]1c1ccccc1 [Compound 25, (3S,4S)-1-(4-((3S,4S)-3,4-Bis(((1S,2R)-2-phenylcyclo-propyl)carbamoyl)pyrrolidine-1-carbonyl)-benzoyl)-N^3-(4-fluorophenethyl)-N^4-((1S,2R)-2-phenylcyclopropyl)-pyrrolidine-3,4-dicarboxamide] | – | – | – | – | EC50 [1, 5]: 0.5 nM; EC50 [2, 6]: 1 nM
O=C(CO)OCCCCCCCCCCCCNC(=O)[C@@H]1CN(C(=O)c2ccc(C(=O)N3C[C@@H](C(=O)N[C@H]4C[C@@H]4c4ccccc4)[C@H](C(=O)N[C@H]4C[C@@H]4c4ccccc4)C3)cc2)C[C@H]1C(=O)N[C@H]1C[C@@H]1c1ccccc1 [Compound 45, 12-((3S,4S)-1-(4-((3S,4S)-3,4-Bis(((1S,2R)-2-phenylcyclopropyl)carbamoyl)pyrrolidine-1-carbonyl)benzoyl)-4-(((1S,2R)-2-phenylcyclo-propyl)carbamoyl)pyrrolidine-3-carboxamido)dodecyl 2-hydroxyacetate] | 100 | 0.2 | 140 | 0.7 | EC50 [1]: 0.05 to 0.2 nM; EC50 [2]: 0.7 to 5 nM
COC(=O)NCC(=O)OCCCCCCCCCCCCNC(=O)[C@@H]1CN(C(=O)c2ccc(C(=O)N3C[C@@H](C(=O)N[C@H]4C[C@@H]4c4ccccc4)[C@H](C(=O)N[C@H]4C[C@@H]4c4ccccc4)C3)cc2)C[C@H]1C(=O)N[C@H]1C[C@@H]1c1ccccc1 [Compound 39, 12-((3S,4S)-1-(4-((3S,4S)-3,4-Bis(((1S,2R)-2-phenylcyclopropyl)carbamoyl)pyrrolidine-1-carbonyl)benzoyl)-4-(((1S,2R)-2-phenylcyclopropyl)-carbamoyl)pyrrolidine-3-carboxamido)-dodecyl 2-((methoxycarbonyl)amino)acetate] | 100 | 0.38 | 120 | 6 | –
Nc1ccc(CCCCCCCCNC(=O)[C@@H]2CN(C(=O)c3ccc(C(=O)N4C[C@@H](C(=O)N[C@H]5C[C@@H]5c5ccccc5)[C@H](C(=O)N[C@H]5C[C@@H]5c5ccccc5)C4)cc3)C[C@H]2C(=O)N[C@H]2C[C@@H]2c2ccccc2)cc1 [Compound 27, (3S,4S)—N-(8-(4-Aminophenyl)octyl)-1-(4-((3S,4S)-3,4-bis(((1S,2R)-2-phenylcyclopropyl)carbamoyl)-pyrrolidine-1-carbonyl)benzoyl)-N^4-((1S,2R)-2-phenyl-cyclopropyl)-pyrrolidine-3,4-dicarboxamide] | 100 | – | 250 | – | EC50 [1, 5]: 0.3 nM; EC50 [2, 6]: 6 nM
O=C(NCc1ccccc1)[C@@H]1CN(C(=O)c2ccc(C(=O)N3C[C@@H](C(=O)N[C@H]4C[C@@H]4c4ccccc4)[C@H](C(=O)N[C@H]4C[C@@H]4c4ccccc4)C3)cc2)C[C@H]1C(=O)N[C@H]1C[C@@H]1c1ccccc1 [Compound 22, (3S,4S)—N^3-Benzyl-1-(4-((3S,4S)-3,4-bis(((1S,2R)-2-phenylcyclopropyl)carbamoyl)pyrrolidine-1-carbonyl)-benzoyl)-N^4-((1S,2R)-2-phenylcyclopropyl)pyrrolidine-3,4-dicarboxamide] | – | – | – | – | EC50 [1, 5]: 7 nM; EC50 [2, 6]: 50 nM
O=C(CNC(=O)OCc1ccccc1)OCCCCCCCCCCCCNC(=O)[C@@H]1CN(C(=O)c2ccc(C(=O)N3C[C@@H](C(=O)N[C@H]4C[C@@H]4c4ccccc4)[C@H](C(=O)N[C@H]4C[C@@H]4c4ccccc4)C3)cc2)C[C@H]1C(=O)N[C@H]1C[C@@H]1c1ccccc1 [Compound 36, 12-((3S,4S)-1-(4-((3S,4S)-3,4-Bis(((1S,2R)-2-phenyl-cyclopropyl)carbamoyl)pyrrolidine-1-carbonyl)-benzoyl)-4-(((1S,2R)-2-phenylcyclopropyl)carbamoyl)-pyrrolidine-3-carboxamido)-dodecyl 2-(((benzyloxy)carbonyl)-amino)acetate] | 100 | 0.1 | 410 | 40 | –
[N-]=[N+]=NCC(=O)OCCCCCCCCCCCCNC(=O)[C@@H]1CN(C(=O)c2ccc(C(=O)N3C[C@@H](C(=O)N[C@H]4C[C@@H]4c4ccccc4)[C@H](C(=O)N[C@H]4C[C@@H]4c4ccccc4)C3)cc2)C[C@H]1C(=O)N[C@H]1C[C@@H]1c1ccccc1 [Compound 34, 12-((3S,4S)-1-(4-((3S,4S)-3,4-Bis(((1S,2R)-2-phenylcyclopropyl)carbamoyl)pyrrolidine-1-carbonyl)-benzoyl)-4-(((1S,2R)-2-phenylcyclopropyl)carbamoyl)-pyrrolidine-3-carboxamido)dodecyl 2-azidoacetate] | 100 | 0.21 | 120 | 3.7 | –
O=C(O)/C=C/C(=O)NCC(=O)OCCCCCCCCCCCCNC(=O)[C@@H]1CN(C(=O)c2ccc(C(=O)N3C[C@@H](C(=O)N[C@H]4C[C@@H]4c4ccccc4)[C@H](C(=O)N[C@H]4C[C@@H]4c4ccccc4)C3)cc2)C[C@H]1C(=O)N[C@H]1C[C@@H]1c1ccccc1 [Compound 82, (E)-4-((2-((12-((3S,4S)-1-(4-((3S,4S)-3,4-Bis(((1S,2R)-2-phenylcyclopropyl)carbamoyl)-pyrrolidine-1-carbonyl)benzoyl)-4-(((1S,2R)-2-phenylcyclopropyl)carbamoyl)pyrrolidine-3-carboxamido)dodecyl)oxy)-2-oxoethyl)amino)-4-oxobut-2-enoic acid] | 100 | – | 60 | – | EC50 ([1]; read-out: EC50 (nM) (THP-1): EC50 TNF-α release from human THP-1 cells, Table 6): 0.32 nM; EC50 ([2]; read-out: EC50 (nM) (mouse): EC50 TNF-α release from mouse macrophages, Table 6): 7 nM
O=C(CNC(=O)OCC1c2ccccc2-c2ccccc21)OCCCCCCCCCCCCNC(=O)[C@@H]1CN(C(=O)c2ccc(C(=O)N3C[C@@H](C(=O)N[C@H]4C[C@@H]4c4ccccc4)[C@H](C(=O)N[C@H]4C[C@@H]4c4ccccc4)C3)cc2)C[C@H]1C(=O)N[C@H]1C[C@@H]1c1ccccc1 [Compound 38, 12-((3S,4S)-1-(4-((3S,4S)-3,4-Bis(((1S,2R)-2-phenyl-cyclopropyl)carbamoyl)pyrrolidine-1-carbonyl)benzoyl)-4-(((1S,2R)-2-phenylcyclopropyl)carbamoyl)pyrrolidine-3-carboxamido)-dodecyl 2-((((9H-fluoren-9-yl)methoxy)carbonyl)amino)acetate] | 100 | 56 | 170 | 375 | –

Source: patent US20250367166A1, “NEXT GENERATION DIPROVOCIMS THAT ACTIVATE THE INNATE AND ADAPTIVE IMMUNE RESPONSE” (The Scripps Research Institute, priority 2022, published 2025)
